From ChEMBL document CHEMBL5335813, “Gausemycin Antibiotic Family Acts via Ca2+-Dependent Membrane Targeting” (2024) come the findings set out here.

Converted amounts (≈) assume the structure as drawn. The source made the active and inactive calls.

In assay [1] the test system is Staphylococcus aureus. Nature of the assay: Antimicrobial activity against Staphylococcus aureus ATCC 29213 assessed as microbial growth inhibition at pH 5 to 6 by susceptibility testing method. The assay is classed as functional, organism-based.
Assay [2] concerns Staphylococcus aureus. In words: Antimicrobial activity against Staphylococcus aureus ATCC 29213 assessed as microbial growth inhibition measured after 18 hrs by CLSI based broth microdilution method. It counts as functional.
Assay [3] deals with Staphylococcus aureus. Nature of the assay: Antimicrobial activity against Staphylococcus aureus ATCC 29213 assessed as microbial growth inhibition in presence of Fe3+ by susceptibility testing method. It counts as functional.
The subject of assay [4] is Lipid bilayer. In words: Induction of pore formation in cationic DOPC/DOTAP lipid bilayer membrane model at 1 to 100 ug/ml in presence of CaCl2. The conditions noted are these: dose 1-100 µg/ml.
Assay [5] relates to Lipid bilayer. In words: Induction of pore formation in anionic DPhPG lipid bilayer membrane model at 1 to 100 ug/ml. Particulars: dose 1-100 µg/ml.
Assay [6] concerns Lipid bilayer. Nature of the assay: Induction of pore formation in anionic DOPC/DOPG lipid bilayer membrane model at 1 to 100 ug/ml in presence of CaCl2. Particulars: dose 1-100 µg/ml.
The subject of assay [7] is Staphylococcus aureus. Nature of the assay: Antimicrobial activity against Staphylococcus aureus ATCC 29213 assessed as microbial growth inhibition in presence of <=200 mM of (H2PO4)-/(HPO4)2- by susceptibility testing method. It counts as functional, organism-based.
Assay [8] relates to Staphylococcus aureus. Nature of the assay: Antimicrobial activity against Staphylococcus aureus ATCC 29213 assessed as microbial growth inhibition in presence of Zn2+ by susceptibility testing method. The assay is classed as functional.
The test system of the next assay is Bacillus cereus. In words: Antimicrobial activity against Bacillus cereus X1 assessed as microbial growth inhibition in presence of Ca2+ by susceptibility testing method. The assay is classed as functional, organism-based.
The subject of assay [9] is Lipid bilayer. Nature of the assay: Induction of pore formation in anionic DOPC/DOPG lipid bilayer membrane model at 1 to 100 ug/ml. Particulars: dose 1-100 µg/ml.
Another assay relates to Macrococcus caseolyticus. Nature of the assay: Antimicrobial activity against Macrococcus caseolyticus assessed as microbial growth inhibition in presence of Ca2+ by susceptibility testing method. The conditions noted are these: Macrococcoides caseolyticum. The assay is classed as functional, organism-based.
In assay [10] the test system is Lipid bilayer. In words: Induction of pore formation in cationic DOPC/DOTAP lipid bilayer membrane model at 1 to 100 ug/ml. The conditions noted are these: dose 1-100 µg/ml.
The test system of assay [11] is Escherichia coli. In words: Antimicrobial activity against Escherichia coli expressing delta-tolC/KanR assessed as microbial growth inhibition in presence of Ca2+ by susceptibility testing method. It counts as functional, organism-based.
Assay [12] relates to Lipid bilayer. In words: Induction of pore formation in anionic TMoCL lipid bilayer membrane model at 1 to 100 ug/ml. Particulars: dose 1-100 µg/ml.
The subject of assay [13] is Lipid bilayer. Nature of the assay: Induction of pore formation in anionic TOCL lipid bilayer membrane model at 1 to 100 ug/ml. Particulars: dose 1-100 µg/ml.
The test system of assay [14] is Lipid bilayer. In words: Induction of pore formation in anionic TMoCL lipid bilayer membrane model assessed as pore-forming threshold concentration.
Assay [15] relates to Escherichia coli. In words: Antimicrobial activity against Escherichia coli BL21 (DE3) assessed as microbial growth inhibition in presence of Ca2+ by susceptibility testing method. It counts as functional, organism-based.
For assay [16], the system named is Lipid bilayer. Nature of the assay: Induction of pore formation in zwitter-ionic DOPC lipid bilayer membrane model at 1 to 100 ug/ml. Particulars: dose 1-100 µg/ml.
Assay [17] deals with Staphylococcus aureus. Nature of the assay: Antimicrobial activity against Staphylococcus aureus ATCC 29213 assessed as microbial growth inhibition in presence of Cu2+ by susceptibility testing method. The assay is classed as functional.
Assay [18] relates to Lipid bilayer. In words: Induction of pore formation in anionic TOCL lipid bilayer membrane model at 1 to 100 ug/ml in presence of CaCl2. Particulars: dose 1-100 µg/ml.
In another assay the test system is Pseudomonas aeruginosa. Nature of the assay: Antimicrobial activity against Pseudomonas aeruginosa assessed as microbial growth inhibition in presence of Ca2+ by susceptibility testing method. It counts as functional, organism-based.
Assay [19] concerns Staphylococcus aureus. Nature of the assay: Antimicrobial activity against Staphylococcus aureus ATCC 29213 assessed as microbial growth inhibition in presence of Na+ by susceptibility testing method. It counts as functional.
The test system of a further assay is Micrococcus luteus. In words: Antimicrobial activity against Micrococcus luteus assessed as microbial growth inhibition in presence of Ca2+ by susceptibility testing method. It counts as functional, organism-based.
Assay [20] deals with Lipid bilayer. Nature of the assay: Induction of pore formation in anionic TMoCL lipid bilayer membrane model assessed as pore-forming threshold concentration in presence of CaCl2.
In assay [21] the test system is Lipid bilayer. In words: Induction of pore formation in anionic DPhPG lipid bilayer membrane model at 1 to 100 ug/ml in presence of CaCl2. Particulars: dose 1-100 µg/ml.
In assay [22] the test system is Staphylococcus aureus. Nature of the assay: Antimicrobial activity against Staphylococcus aureus ATCC 29213 assessed as microbial growth inhibition in presence of Ca2+ by susceptibility testing method. The assay is classed as functional.
Assay [23] relates to Staphylococcus aureus. In words: Antimicrobial activity against Staphylococcus aureus ATCC 29213 assessed as microbial growth inhibition in presence of K+ by susceptibility testing method. The assay is classed as functional.
For assay [24], the system named is Staphylococcus aureus. Nature of the assay: Antimicrobial activity against Staphylococcus aureus ATCC 29213 assessed as microbial growth inhibition in presence of Mg2+ by susceptibility testing method. The assay is classed as functional.
Assay [25] deals with Staphylococcus aureus. In words: Antimicrobial activity against Staphylococcus aureus ATCC 29213 assessed as microbial growth inhibition in presence of Mn2+ by susceptibility testing method. It counts as functional.
In assay [26] the test system is Staphylococcus aureus. In words: Antimicrobial activity against Staphylococcus aureus ATCC 29213 assessed as microbial growth inhibition at pH 5 to 6 by microdilution method. It counts as functional, organism-based.

As to `CN[C@H](CC(C)C)C(=O)N[C@H]1C(=O)N[C@@H](CC(N)=O)C(=O)N[C@H]2C(=O)N[C@H]3C(=O)N[C@H](C(=O)N[C@H](C(=O)O)c4cc(O)cc(O)c4-c4cc3ccc4O)[C@H](O)c3ccc(c(Cl)c3)Oc3cc2cc(c3O[C@@H]2O[C@H](CO)[C@@H](O)[C@H](O)[C@H]2O[C@H]2C[C@](C)(N)[C@H](O)[C@H](C)O2)Oc2ccc(cc2Cl)[C@H]1O`, the “growth inhibition (GI)” value in the assay with Staphylococcus aureus [1] is “Active”.

Take `NC[C@H]1O[C@H](O[C@H]2[C@H](O)[C@@H](O[C@H]3O[C@H](CO)[C@@H](O)[C@H](N)[C@H]3O)[C@H](N)C[C@@H]2N)[C@H](N)C[C@@H]1O`: in the assay with Staphylococcus aureus [1], the “growth inhibition (GI)” value was “Active”.

For `CC(C)/C=C/C=C\C(=O)NCCC(=O)N[C@@H](CCCN)C(=O)NC(CC(O)c1ccccc1)C(=O)NC(C(=O)N[C@@H](Cc1ccc(O)cc1)C(=O)NC1C(=O)N[C@H](CC(C)C)C(=O)N[C@@H](CC(=O)O)C(=O)NCC(=O)N[C@@H](CO)C(=O)NCC(=O)N[C@@H](CC(=O)c2ccc(Cl)cc2N)C(=O)N[C@@H](C)C(=O)N2CCC[C@H]2C(=O)NC1C)C(O)CC(=O)O` (some centres not stated), in the assay with Staphylococcus aureus [2], the MIC was 8 µg/mL (≈ 4.66 µM).

For the compound `CNCCC(=O)NCCC[C@H](NC(=O)CCNC(=O)/C=C\C=C\C(C)C)C(=O)NC(CC(O)c1ccccc1)C(=O)NC(C(=O)N[C@@H](Cc1ccc(OC2OC[C@H](O)[C@H](O)[C@H]2O)cc1)C(=O)NC1C(=O)N[C@H](CC(C)C)C(=O)N[C@@H](CC(=O)O)C(=O)NCC(=O)N[C@@H](CO)C(=O)NCC(=O)N[C@@H](CC(=O)c2ccc(Cl)cc2N)C(=O)N[C@@H](C)C(=O)N2CCC[C@H]2C(=O)NC1C)C(O)CC(=O)O` (some centres not stated), in the assay on Staphylococcus aureus [2], the MIC was 4 µg/mL (≈ 2.07 µM).

For `CC(C)/C=C/C=C\C(=O)NCCC(=O)N[C@@H](CCCNC(=O)CCN)C(=O)NC(CC(O)c1ccccc1)C(=O)NC(C(=O)N[C@@H](Cc1ccc(OC2OC[C@H](O)[C@H](O)[C@H]2O)cc1)C(=O)NC1C(=O)N[C@H](CC(C)C)C(=O)N[C@@H](CC(=O)O)C(=O)NCC(=O)N[C@@H](CO)C(=O)NCC(=O)N[C@@H](CC(=O)c2ccc(Cl)cc2N)C(=O)N[C@@H](C)C(=O)N2CCC[C@H]2C(=O)NC1C)C(O)CC(=O)O` (some centres not stated), in the assay with Staphylococcus aureus [2], the MIC worked out at 2 µg/mL (≈ 1.04 µM). Further, the “growth inhibition (GI)” value in the assay with Staphylococcus aureus [3], in the assay with Staphylococcus aureus [8], in the assay with Staphylococcus aureus [17], in the assay on Staphylococcus aureus [1], with Staphylococcus aureus [19] and in the assay on Staphylococcus aureus [22] was “Active” in each case. In addition, the “growth inhibition (GI)” value in the assay with Staphylococcus aureus [23], in the assay on Staphylococcus aureus [24] and in the assay with Staphylococcus aureus [25] was “Active” in each case. For the same compound, the outcome in the assay on Lipid bilayer [4], in the assay with Lipid bilayer [5], with Lipid bilayer [6], in the assay on Lipid bilayer [9], in the assay with Lipid bilayer [10] and in the assay on Lipid bilayer [12] was Active. Besides, the outcome in the assay on Lipid bilayer [13], with Lipid bilayer [18] and in the assay with Lipid bilayer [21] was Active. The result in the assay on Staphylococcus aureus [7] and in the assay on Lipid bilayer [16] was inactive. Also, the inhibition result in the assay on Bacillus cereus, in the assay on Macrococcus caseolyticus and in the assay on Micrococcus luteus was “Active” each time. Further, the inhibition entry in the assay on Escherichia coli [11], with Escherichia coli [15] and in the assay on Pseudomonas aeruginosa was “inactive” in each case. For the same compound, the figures for the Activity in the assay with Lipid bilayer [14] and in the assay on Lipid bilayer [20] were 10 µg/mL and 7 µg/mL, respectively.

Turning to `NCC[C@H](O)C(=O)N[C@@H]1C[C@H](N)[C@@H](O[C@H]2O[C@H](CN)[C@@H](O)[C@H](O)[C@H]2O)[C@H](O)[C@H]1O[C@H]1O[C@H](CO)[C@@H](O)[C@H](N)[C@H]1O`, in the assay with Staphylococcus aureus [1], the “growth inhibition (GI)” value was “Active”.

As to `CNCCC(=O)NCCC[C@H](NC(=O)CCNC(=O)/C=C\C=C\C(C)C)C(=O)NC(CC(O)c1ccccc1)C(=O)NC(C(=O)N[C@@H](Cc1ccc(O)cc1)C(=O)NC1C(=O)N[C@H](CC(C)C)C(=O)N[C@@H](CC(=O)O)C(=O)NCC(=O)N[C@@H](CO)C(=O)NCC(=O)N[C@@H](CC(=O)c2ccc(Cl)cc2N)C(=O)N[C@@H](C)C(=O)N2CCC[C@H]2C(=O)NC1C)C(O)CC(=O)O` (some centres not stated), in the assay on Staphylococcus aureus [2], the MIC stood at 16 µg/mL (≈ 8.89 µM).

For the compound `CC(C)/C=C/C=C\C(=O)NCCC(=O)N[C@@H](CCCNC(=O)CCN)C(=O)NC(CC(O)c1ccccc1)C(=O)NC(C(=O)N[C@@H](Cc1ccc(O)cc1)C(=O)NC1C(=O)N[C@H](CC(C)C)C(=O)N[C@@H](CC(=O)O)C(=O)NCC(=O)N[C@@H](CO)C(=O)NCC(=O)N[C@@H](CC(=O)c2ccc(Cl)cc2N)C(=O)N[C@@H](C)C(=O)N2CCC[C@H]2C(=O)NC1C)C(O)CC(=O)O` (some centres not stated), the MIC in the assay on Staphylococcus aureus [2] turned out to be 8 µg/mL (≈ 4.48 µM).

For the compound `CCCCCCCCCC(=O)N[C@@H](Cc1c[nH]c2ccccc12)C(=O)N[C@H](CC(N)=O)C(=O)N[C@@H](CC(=O)O)C(=O)N[C@@H]1C(=O)NCC(=O)N[C@@H](CCCN)C(=O)N[C@@H](CC(=O)O)C(=O)N[C@H](C)C(=O)N[C@@H](CC(=O)O)C(=O)NCC(=O)N[C@H](CO)C(=O)N[C@@H]([C@H](C)CC(=O)O)C(=O)N[C@@H](CC(=O)c2ccccc2N)C(=O)O[C@@H]1C`, the “growth inhibition (GI)” value in the assay on Staphylococcus aureus [26] is “Active”.
